Legend:
HEK-293 cells = assay: HEK-293 Cytotoxicity Assay (CellTiter-Glo); type: cell-based; settings: Homo sapiens, HEK293, 72 h incubation, CellTiter-Glo luminescence
In short: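 Four-parameter fit of % inhibition gives IC50, from CellTiter-Glo luminescent viability read-out. Cells exposed for 72 h to an 8-point, 4-fold series at 0.2% DMSO.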

BTK = biological target: T1, BTK (Homo sapiens, UniProt Q06187); assay: Cell Degradation: BTK degradation in TMD-8 cells, HTRF assay; type: cell-based; settings: 6 h treatment, IC50 (DC50) of BTK degradation
T1 construct: High control=Cell group with added DMSO and without compound, indicating microplate readings without BTK degradation; endogenous in cells; host or cells: TMD-8 cells
T1 sequence (Q06187 whole entry): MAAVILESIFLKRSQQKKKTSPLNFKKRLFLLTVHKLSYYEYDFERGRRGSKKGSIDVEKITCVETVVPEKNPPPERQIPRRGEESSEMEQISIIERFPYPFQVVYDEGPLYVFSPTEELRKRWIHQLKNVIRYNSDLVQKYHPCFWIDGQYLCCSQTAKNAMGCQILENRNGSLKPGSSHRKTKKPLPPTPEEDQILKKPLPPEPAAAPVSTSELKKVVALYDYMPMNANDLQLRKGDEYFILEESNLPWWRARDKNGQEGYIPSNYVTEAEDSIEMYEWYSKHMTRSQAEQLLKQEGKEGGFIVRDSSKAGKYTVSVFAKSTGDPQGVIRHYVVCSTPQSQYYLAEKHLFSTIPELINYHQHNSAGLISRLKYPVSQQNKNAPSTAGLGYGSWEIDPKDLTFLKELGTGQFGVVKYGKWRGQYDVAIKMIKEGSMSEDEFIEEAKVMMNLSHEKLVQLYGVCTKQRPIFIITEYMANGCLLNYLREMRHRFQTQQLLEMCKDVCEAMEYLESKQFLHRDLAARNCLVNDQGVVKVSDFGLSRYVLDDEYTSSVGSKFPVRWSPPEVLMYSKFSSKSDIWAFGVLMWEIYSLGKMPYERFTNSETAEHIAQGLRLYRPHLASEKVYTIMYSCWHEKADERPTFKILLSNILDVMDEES
In short: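 BTK levels read by HTRF (665 vs 620 nm) in lysates of TMD-8 cells after 6 h compound exposure (eight doses, 6-fold steps, 0.2% DMSO). Percent degradation relative to controls; four-parameter curve fitting gave DC50, with Dmax the top degradation.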

SMILES | DC50 (BTK) [nM] | IC50 (HEK-293 cells) [nM]
Cc1cc(-c2ncnc3[nH]c(-c4ccc(N5CCN(CC6CCN(c7ccc(N8CCC(=O)NC8=O)c(C)c7)CC6)CC5)nc4)cc23)ccc1[C@@H](C)NC(=O)c1nc(C(C)(C)C)no1 [Example 58, (R)-3-(tert-butyl)-N-(1-(4-(6-(6-(4-((1-(4-(2,4-dioxotetrahydropyrimidin-1(2H)-yl)-3-methylphenyl)piperidin-4-yl)methyl)piperazin-1-yl)pyridin-3-yl)-7H-pyrrolo[2,3-d]pyrimidin-4-yl)-2-methylphenyl)ethyl)-1,2,4-oxadiazole-5-carboxamide] | 1.5 | > 10000
Cc1cc(-c2ncnc3[nH]c(-c4c(C)nn(C5CCN(CC6CCN(c7ccc(N8CCC(=O)NC8=O)cc7)CC6)CC5)c4C)cc23)ccc1[C@@H](C)NC(=O)c1noc(C(C)(C)C)n1 [Example 62, (R)-5-(tert-butyl)-N-(1-(4-(6-(1-(1-((1-(4-(2,4-dioxotetrahydropyrimidin-1(2H)-yl)phenyl)piperidin-4-yl)methyl)piperidin-4-yl)-3,5-dimethyl-1H-pyrazol-4-yl)-7H-pyrrolo[2,3-d]pyrimidin-4-yl)-2-methylphenyl)ethyl)-1,2,4-oxadiazole-3-carboxamide] | 0.53 | > 10000
Cc1cc(-c2ncnc3[nH]c(-c4ccc(N5CCN(CC6CCN(c7ccc(N8CCC(=O)NC8=O)c(C)c7)CC6)CC5)cc4)nc23)ccc1[C@@H](C)NC(=O)c1nc(C(C)(C)C)no1 [Example 67, (R)-3-(tert-butyl)-N-(1-(4-(8-(4-(4-((1-(4-(2,4-dioxotetrahydropyrimidin-1(2H)-yl)-3-methylphenyl)piperidin-4-yl)methyl)piperazin-1-yl)phenyl)-9H-purin-6-yl)-2-methylphenyl)ethyl)-1,2,4-oxadiazole-5-carboxamide] | 0.69 | > 10000

Continued, in another order:

DC50 (BTK) [nM] | SMILES | IC50 (HEK-293 cells) [nM]
0.48 | Cc1cc(-c2ncnc3[nH]c(-c4c(C)nn(C5CCN(CC6CCN(c7ccc(N8CCC(=O)NC8=O)cc7)CC6)CC5)c4C)cc23)ccc1[C@@H](C)NC(=O)c1nc(C(C)(C)C)no1 [Example 60, (R)-3-(tert-butyl)-N-(1-(4-(6-(1-(1-((1-(4-(2,4-dioxotetrahydropyrimidin-1(2H)-yl)phenyl)piperidin-4-yl)methyl)piperidin-4-yl)-3,5-dimethyl-1H-pyrazol-4-yl)-7H-pyrrolo[2,3-d]pyrimidin-4-yl)-2-methylphenyl)ethyl)-1,2,4-oxadiazole-5-carboxamide] | > 10000
0.52 | Cc1cc(-c2ncnc3[nH]c(-c4c(C)nn(C5CCN(CC6CCN(c7ccc(N8CCC(=O)NC8=O)c(C)c7)CC6)CC5)c4C)cc23)ccc1[C@@H](C)NC(=O)c1nc(C(C)(C)C)no1 [Example 61, (R)-3-(tert-butyl)-N-(1-(4-(6-(1-(1-((1-(4-(2,4-dioxotetrahydropyrimidin-1(2H)-yl)-3-methylphenyl)piperidin-4-yl)methyl)piperidin-4-yl)-3,5-dimethyl-1H-pyrazol-4-yl)-7H-pyrrolo[2,3-d]pyrimidin-4-yl)-2-methylphenyl)ethyl)-1,2,4-oxadiazole-5-carboxamide] | 9000
0.6 | Cc1cc(-c2ncnc3[nH]c(-c4ccc(N5CCN(CC6CCN(c7ccc(N8CCC(=O)NC8=O)c(C)c7)CC6)CC5)nc4)nc23)ccc1[C@@H](C)NC(=O)c1nc(C(C)(C)C)no1 [Example 65, (R)-3-(tert-butyl)-N-(1-(4-(8-(6-(4-((1-(4-(2,4-dioxotetrahydropyrimidin-1(2H)-yl)-3-methylphenyl)piperidin-4-yl)methyl)piperazin-1-yl)pyridin-3-yl)-9H-purin-6-yl)-2-methylphenyl)ethyl)-1,2,4-oxadiazole-5-carboxamide] | > 10000
